Assay results reported in patent publication US20260130901A1, “CGRP RECEPTOR ANTAGONIST FOR THE TREATMENT OF MIGRAINE” (ALLERGAN PHARMACEUTICALS INTERNATIONAL LIMITED, priority 2022, published 2026).

Key:
[1] = test system: participants with migraine (qualifying prodrome events); assay: Phase 3 crossover study: absence of headache after treatment during the prodrome; assay type: in vivo, human
Procedure: (§1) A phase 3, multicenter, randomized, double-blind, placebo-controlled, crossover study was carried out to evaluate the efficacy, safety, and tolerability of oral ubrogepant in the acute treatment of migraine when administered during the prodrome. The study evaluated whether treatment during the initial phase of a migraine attack (i.e., the prodrome or premonitory phase) prior to the onset of headache, can attenuate the severity of the headache phase and reduce disability.
Eligible participants were able to treat two qualifying prodrome events, defined as a migraine attack with prodromal symptoms in which the participant was confident a headache would follow within 1-6 hours.
The primary endpoint was absence of moderate or severe intensity headache within 24 hours post-dose. Secondary endpoints were absence of moderate/severe intensity headache within 48 hours, ability to function normally over 24 hours, and absence of headache of any intensity within 24 hours post-dose.
The trial enrolled adults with 2-8 migraine attacks per month who stated that they could identify migraine attacks with prodromal symptoms reliably followed by headache. Using an e-diary, participants reported qualifying events, defined as a migraine attack with prodromal symptoms in which the participant was confident a headache would follow within 1-6 hours.
(§2) Eligible participants were randomized (1:1) to treatment sequences A or B in this crossover study. Participants randomized to Treatment Sequence A received placebo to treat their first qualifying prodrome event and ubrogepant 100 mg to treat their second qualifying prodrome event. For those randomized to Treatment Sequence B, they received the reverse: ubrogepant 100 mg to treat their first qualifying prodrome event and placebo to treat their second qualifying prodrome event.
The primary efficacy endpoint was the absence of a headache of moderate/severe intensity within 24 hours after taking double-blind study intervention during the prodrome. The secondary efficacy endpoints were the absence of a headache of moderate or severe intensity within 48 hours, ability to function normally over 24 hours, and absence of a headache of any intensity within 24 hours after taking double blind study interventions during the prodrome.
The overall study design is illustrated in FIG. 1. […] After meeting eligibility criteria, randomized participants were to treat two qualifying prodrome events with study intervention during the double-blind treatment period (between Visit 2 and Visit 4) (up to 60 days), separated by a clinic visit (visit 3) to ensure a minimum 7-day washout period. A post-treatment visit (visit 4) followed four days after the last treatment was taken.
To be eligible for study participation, participants must be 18 to 75 years of age (inclusive) at Visit 1, have at least a 1-year history of migraine with or without aura consistent with diagnosis according to the ICHD-3 (2018), and experience 2 to 8 migraine attacks with moderate to severe headache per month by history in each of the 3 months prior to screening. At the screening visit, participants were asked whether they could identify prodromal symptoms followed by migraine headache within 1 to 6 hours at least 75% of the time. […] After the screening period, to be eligible for randomization, the participant needed to record 3 to 16 qualifying prodrome events with at least 75% of these events followed by a headache, of any intensity, within 1 to 6 hours.
Participants were excluded if they had difficulty distinguishing migraine from tension-type or other headache types, or if they had chronic migraine, a trigeminal autonomic cephalalgia, or a painful cranial neuropathy. Participants who overused medication for migraine or had previous exposure to an injectable anti-CGRP monoclonal antibody within the previous 3 months were also excluded.
Participant flow is illustrated in FIG. 2. […]

[2] = test system: participants with migraine (qualifying prodrome events); assay: Phase 3 crossover study: activity limitation at 24 hours; assay type: in vivo, human; conditions: 100 mg in prodrome, at 24 hours post-dose
Procedure: as §1, §2

[3] = 100 mg in prodrome, within 1 hour, mITT, observed cases
[4] = 100 mg in prodrome, within 2 hours, mITT, observed cases
[5] = 100 mg in prodrome, within 3 hours, mITT, observed cases
[6] = 100 mg in prodrome, within 4 hours, mITT, observed cases
[7] = 100 mg in prodrome, within 6 hours, mITT, observed cases
[8] = 100 mg in prodrome, within 8 hours, mITT, observed cases
[9] = 100 mg in prodrome, within 24 hours, mITT, observed cases
[10] = 100 mg in prodrome, within 24 hours, mITT, observed cases (primary analysis)
[11] = 100 mg in prodrome, within 24 hours, sensitivity analysis: Period 1 data only
[12] = 100 mg in prodrome, within 24 hours, sensitivity analysis: non-responder imputation
[13] = 100 mg in prodrome, within 24 hours, sensitivity analysis: testing carryover effect
[14] = 100 mg in prodrome, within 48 hours, mITT, observed cases

SMILES: C[C@@H]1[C@H](c2ccccc2)C[C@H](NC(=O)c2cnc3c(c2)C[C@@]2(C3)C(=O)Nc3ncccc32)C(=O)N1CC(F)(F)F [Ubrogepant, (3′S)—N-((3S,5S,6R)-6-methyl-2-oxo-5-phenyl-1-(2,2,2-trifluoroethyl)piperidin-3-yl)-2′-oxo-1′,2′,5,7-tetrahydrospiro[cyclopenta[b]pyridine-6,3′-pyrrolo[2,3-b]pyridine]-3-carboxamide]
- Absence of a headache of any intensity, Nonresponder (%) [1, 3]: (42.9) %
- Absence of a headache of any intensity, Odds Ratio vs. Placebo [1, 3]: 1.19
- Absence of a headache of any intensity, Responder (%) [1, 3]: (57.1) %
- Absence of a headache of moderate/severe intensity, Nonresponder (%) [1, 3]: (22.9) %
- Absence of a headache of moderate/severe intensity, Odds Ratio vs. Placebo [1, 3]: 1.30
- Absence of a headache of moderate/severe intensity, Responder (%) [1, 3]: (77.1) %
- Absence of a headache of severe intensity, Nonresponder (%) [1, 3]: (4.0) %
- Absence of a headache of severe intensity, Odds Ratio vs. Placebo [1, 3]: 1.21
- Absence of a headache of severe intensity, Responder (%) [1, 3]: (96.0) %
- Absence of a headache of any intensity, Nonresponder (%) [1, 4]: (55.7) %
- Absence of a headache of any intensity, Odds Ratio vs. Placebo [1, 4]: 1.34
- Absence of a headache of any intensity, Responder (%) [1, 4]: (44.3) %
- Absence of a headache of moderate/severe intensity, Nonresponder (%) [1, 4]: (35.4) %
- Absence of a headache of moderate/severe intensity, Odds Ratio vs. Placebo [1, 4]: 1.31
- Absence of a headache of moderate/severe intensity, Responder (%) [1, 4]: (64.6) %
- Absence of a headache of severe intensity, Nonresponder (%) [1, 4]: (7.4) %
- Absence of a headache of severe intensity, Odds Ratio vs. Placebo [1, 4]: 1.33
- Absence of a headache of severe intensity, Responder (%) [1, 4]: (92.6) %
- Absence of a headache of any intensity, Nonresponder (%) [1, 5]: (62.5) %
- Absence of a headache of any intensity, Odds Ratio vs. Placebo [1, 5]: 1.60
- Absence of a headache of any intensity, Responder (%) [1, 5]: (37.5) %
- Absence of a headache of moderate/severe intensity, Nonresponder (%) [1, 5]: (39.9) %
- Absence of a headache of moderate/severe intensity, Odds Ratio vs. Placebo [1, 5]: 1.71
- Absence of a headache of moderate/severe intensity, Responder (%) [1, 5]: (60.1) %
- Absence of a headache of severe intensity, Nonresponder (%) [1, 5]: (9.4) %
- Absence of a headache of severe intensity, Odds Ratio vs. Placebo [1, 5]: 1.41
- Absence of a headache of severe intensity, Responder (%) [1, 5]: (90.6) %
- Absence of a headache of any intensity, Nonresponder (%) [1, 6]: (67.3) %
- Absence of a headache of any intensity, Odds Ratio (95% CI) vs. Placebo [1, 6]: 1.76 (1.35, 2.30)
- Absence of a headache of any intensity, Responder (%) [1, 6]: (32.7) %
- Absence of a headache of moderate/severe intensity, Nonresponder (%) [1, 6]: (41.5) %
- Absence of a headache of moderate/severe intensity, Odds Ratio vs. Placebo [1, 6]: 1.91
- Absence of a headache of moderate/severe intensity, Responder (%) [1, 6]: (58.5) %
- Absence of a headache of severe intensity, Nonresponder (%) [1, 6]: (10.5) %
- Absence of a headache of severe intensity, Odds Ratio vs. Placebo [1, 6]: 1.70
- Absence of a headache of severe intensity, Responder (%) [1, 6]: (89.5) %
- Absence of a headache of any intensity, Nonresponder (%) [1, 7]: (71.0) %
- Absence of a headache of any intensity, Odds Ratio vs. Placebo [1, 7]: 1.79
- Absence of a headache of any intensity, Responder (%) [1, 7]: (29.0) %
- Absence of a headache of moderate/severe intensity, Nonresponder (%) [1, 7]: (46.6) %
- Absence of a headache of moderate/severe intensity, Odds Ratio vs. Placebo [1, 7]: 1.86
- Absence of a headache of moderate/severe intensity, Responder (%) [1, 7]: (53.4) %
- Absence of a headache of severe intensity, Nonresponder (%) [1, 7]: (12.5) %
- Absence of a headache of severe intensity, Odds Ratio vs. Placebo [1, 7]: 1.77
- Absence of a headache of severe intensity, Responder (%) [1, 7]: (87.5) %
- Absence of a headache of any intensity, Nonresponder (%) [1, 8]: (72.5) %
- Absence of a headache of any intensity, Odds Ratio vs. Placebo [1, 8]: 1.85
- Absence of a headache of any intensity, Responder (%) [1, 8]: (27.5) %
- Absence of a headache of moderate/severe intensity, Nonresponder (%) [1, 8]: (48.2) %
- Absence of a headache of moderate/severe intensity, Odds Ratio vs. Placebo [1, 8]: 2.01
- Absence of a headache of moderate/severe intensity, Responder (%) [1, 8]: (51.8) %
- Absence of a headache of severe intensity, Nonresponder (%) [1, 8]: (13.1) %
- Absence of a headache of severe intensity, Odds Ratio vs. Placebo [1, 8]: 1.89
- Absence of a headache of severe intensity, Responder (%) [1, 8]: (86.9) %
- Absence of a headache of any intensity, Nonresponder (%) [1, 9]: (76.3) %
- Absence of a headache of any intensity, Odds Ratio vs. Placebo [1, 9]: 1.93
- Absence of a headache of any intensity, Responder (%) [1, 9]: (23.7) %
- Absence of a headache of severe intensity, Nonresponder (%) [1, 9]: (14.5) %
- Absence of a headache of severe intensity, Odds Ratio vs. Placebo [1, 9]: 1.83
- Absence of a headache of severe intensity, Responder (%) [1, 9]: (85.5) %
- Absence of a headache of moderate/severe intensity, Nonresponder (%) [1, 10]: (54.5) %
- Absence of a headache of moderate/severe intensity, Odds Ratio vs. Placebo [1, 10]: 2.09
- Absence of a headache of moderate/severe intensity, Responder (%) [1, 10]: (45.5) %
- Absence of a headache of moderate/severe intensity, Responder (%) ([1]; 100 mg in prodrome, within 24 hours, mITT, observed cases (primary analysis), listed as ubrogepant): 45.5%
- Absence of a headache of any intensity, Responder (%) ([1]; 100 mg in prodrome, within 24 hours, mITT, observed cases, listed as ubrogepant): 23.7%
- Absence of a headache of moderate/severe intensity, Nonresponder (%) [1, 11]: (52.6) %
- Absence of a headache of moderate/severe intensity, Odds Ratio vs. Placebo [1, 11]: 2.11
- Absence of a headache of moderate/severe intensity, Responder (%) [1, 11]: (47.4) %
- Absence of a headache of moderate/severe intensity, Nonresponder (%) [1, 12]: (57.6) %
- Absence of a headache of moderate/severe intensity, Odds Ratio vs. Placebo [1, 12]: 2.01
- Absence of a headache of moderate/severe intensity, Responder (%) [1, 12]: (42.4) %
- Absence of a headache of moderate/severe intensity, Nonresponder (%) [1, 13]: (54.5) %
- Absence of a headache of moderate/severe intensity, Odds Ratio vs. Placebo [1, 13]: 2.09
- Absence of a headache of moderate/severe intensity, Responder (%) [1, 13]: (45.5) %
- Absence of a headache of any intensity, Nonresponder (%) [1, 14]: (81.4) %
- Absence of a headache of any intensity, Odds Ratio vs. Placebo [1, 14]: 1.90
- Absence of a headache of any intensity, Responder (%) [1, 14]: (18.6) %
- Absence of a headache of moderate/severe intensity, Nonresponder (%) [1, 14]: (59.3) %
- Absence of a headache of moderate/severe intensity, Odds Ratio vs. Placebo [1, 14]: 2.13
- Absence of a headache of moderate/severe intensity, Responder (%) [1, 14]: (40.7) %
- Absence of a headache of severe intensity, Nonresponder (%) [1, 14]: (17.4) %
- Absence of a headache of severe intensity, Odds Ratio vs. Placebo [1, 14]: 1.71
- Absence of a headache of severe intensity, Responder (%) [1, 14]: (82.6) %
- Absence of a headache of moderate/severe intensity, Responder (%) ([1]; 100 mg in prodrome, within 48 hours, mITT, observed cases, listed as ubrogepant): 40.7%
- Reducing the development of moderate/severe headache within 24 and 48 hours and of headache of any intensity within 24 hours ([1]; administered during the prodrome): superior to placebo
- Activity limitation, Odds ratio vs placebo [2]: 2.07
- Activity limitation, Responders (%) (not at all limited or a little limited) [2]: (65.4) %
- Activity limitation, Responders (%) (not at all limited or a little limited) ([2]; listed as ubrogepant): 65.4%
